Assay results from ChEMBL document CHEMBL1138384, “Rational design of a nonpeptide general chemical scaffold for reversible inhibition of PDZ domain interactions” (Bioorg Med Chem Lett, 2007).
Activity calls are given as the source filed them. The calls are words filed in the database; no cut-off is given here.

How the values were obtained:
Homo sapiens [1] = organism: Homo sapiens; assay: Displacement of peptide probe from MAGI3 PDZ2 domain by fluorescent polarization method
HCT-116 = assay: Effect on HCT116 cells expressing wild-type PTEN assessed as 2-fold increase in PKB activity at 50 uM; type: functional, cell-based; settings: Homo sapiens
HEK293 = assay: Inhibition of receptor recycling in HEK293 cells assessed as reduction of adrenergic beta-2 receptor expression; type: functional, cell-based; settings: Homo sapiens
[2] = target: Cystic fibrosis transmembrane conductance regulator (Homo sapiens) (UniProt P13569); assay: Inhibition of […]-mediated chloride transport in human bronchial epithelial cells by voltage clamp method; type: cell-based; settings: Epithelial cell
Sequence of Cystic fibrosis transmembrane conductance regulator (Homo sapiens) (P13569 whole entry, looked up): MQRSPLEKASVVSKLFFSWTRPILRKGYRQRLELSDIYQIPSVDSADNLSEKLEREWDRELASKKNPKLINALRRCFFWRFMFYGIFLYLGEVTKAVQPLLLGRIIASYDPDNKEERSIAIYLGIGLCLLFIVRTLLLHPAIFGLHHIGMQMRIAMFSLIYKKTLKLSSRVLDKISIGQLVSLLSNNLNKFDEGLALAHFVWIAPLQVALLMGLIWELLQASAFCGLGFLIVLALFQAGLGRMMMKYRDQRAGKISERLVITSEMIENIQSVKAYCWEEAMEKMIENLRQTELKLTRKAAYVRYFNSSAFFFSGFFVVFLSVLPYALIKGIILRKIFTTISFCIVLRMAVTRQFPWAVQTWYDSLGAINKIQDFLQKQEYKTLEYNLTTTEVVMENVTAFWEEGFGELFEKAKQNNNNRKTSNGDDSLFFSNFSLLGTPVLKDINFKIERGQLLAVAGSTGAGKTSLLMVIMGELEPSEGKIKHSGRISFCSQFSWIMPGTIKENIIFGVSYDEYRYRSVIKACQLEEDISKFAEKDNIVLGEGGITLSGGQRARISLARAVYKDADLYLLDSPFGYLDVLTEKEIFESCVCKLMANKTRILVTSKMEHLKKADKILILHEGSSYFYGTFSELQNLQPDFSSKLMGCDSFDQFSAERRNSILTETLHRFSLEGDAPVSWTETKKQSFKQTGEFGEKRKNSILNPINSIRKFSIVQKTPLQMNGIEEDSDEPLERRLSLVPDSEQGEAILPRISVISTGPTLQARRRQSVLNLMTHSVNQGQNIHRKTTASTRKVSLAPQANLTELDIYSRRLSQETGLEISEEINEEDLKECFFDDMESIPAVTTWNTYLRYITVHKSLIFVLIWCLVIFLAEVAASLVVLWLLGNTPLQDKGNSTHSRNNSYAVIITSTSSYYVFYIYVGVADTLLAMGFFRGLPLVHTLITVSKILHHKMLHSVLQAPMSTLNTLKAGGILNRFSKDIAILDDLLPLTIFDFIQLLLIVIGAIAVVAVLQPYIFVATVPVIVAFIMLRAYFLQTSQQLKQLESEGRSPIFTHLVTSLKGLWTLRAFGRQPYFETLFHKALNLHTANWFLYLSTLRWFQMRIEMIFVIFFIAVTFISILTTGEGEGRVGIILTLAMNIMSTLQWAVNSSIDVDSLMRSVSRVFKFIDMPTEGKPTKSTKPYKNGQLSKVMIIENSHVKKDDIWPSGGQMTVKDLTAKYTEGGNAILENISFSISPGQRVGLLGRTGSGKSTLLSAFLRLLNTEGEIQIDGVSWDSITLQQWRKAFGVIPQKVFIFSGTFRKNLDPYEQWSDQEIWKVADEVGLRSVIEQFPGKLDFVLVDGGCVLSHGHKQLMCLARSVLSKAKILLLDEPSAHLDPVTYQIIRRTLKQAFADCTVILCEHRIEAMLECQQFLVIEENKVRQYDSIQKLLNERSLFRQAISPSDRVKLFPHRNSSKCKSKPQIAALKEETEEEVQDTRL

[3] = Solubility in water; type: physicochemical
Homo sapiens [4] = organism: Homo sapiens; assay: Inhibition of MAGI3-PTEN interaction assessed as activation of PKB at 5 uM
Homo sapiens [5] = organism: Homo sapiens; assay: Inhibition of MAGI3-PTEN interaction at 10 uM

Row | Compound | Activity (Homo sapiens [1]) | Activity (HCT-116) | Activity (HEK293) | Activity [2] | solubility [3] [mM] | Activity (Homo sapiens [4]) | inhibition (Homo sapiens [5]) [%]
1 | CCCCC(O)c1cc2cc(C)c(C(=O)[O-])cc2n1CCc1ccccc1.[Na+] (configuration not stated) | Active | Active | Dose-dependent effect | Dose-dependent effect | > 30 | – | –
2 | CCCCCc1c(CO)c2cc(C)c(C(=O)O)cc2n1CCc1ccccc1 | – | – | – | – | – | Active | 50
